Results on two molecules are retold here after US20090163409A1, “Trappin-2 (elafin) inhibits HIV” (priority 2005, published 2009).

The subject of one assay is HIV HxBc2. Put plainly: HIV HxBc2 viral replication in MT4 cells (RT activity in supernatants, p24 western blot). It counts as cell-based. As for the experimental part:
FIG. 4. Trappin-2 inhibits HIV viral replication in an in vitro system. A) We tested HIV HxBc2 in an established viral replication model system and measured the effect of pretreatment of recombinant human trappin-2 (6.0 kDa form) on cells in viral infection 15,19. Briefly, 1 or 5 ug/mL of trappin-2 was incubated with MT4 cells for 1 hour. Then equivalent amounts of virus (0.02 cpm/cell) were added to the cells in the presence of trappin-2 for 2 hours. Infected cells were washed and cultured in the absence of trappin-2. As a control, 10 uM of AZT was used. Viral production in supernatants was evaluated by RT activity after 6 days of culture. […] B) The experiment was repeated with an additional assay of trappin-2 preincubated with cells and subsequently supplemented into the culture media (lane 6). Supernatants were harvested at Day 6 of infection and assayed for both RT activity and western blot analysis for HIV p24. Error bars are mean±SEM.
(§1) Finally, the ability of trappin-2 (6.0 kDa form) to inhibit HIV infection in an established HIV infection model was examined. A highly infectable T cell line (MT4) was used to assay the effect of trappin-2 inhibition on HIV HxBc2 replication 13,14,15. HIV inhibition experiments were performed by preincubating trappin-2 with either the virus, or target cells. […] In our in vitro system a 5 fold increase in trappin-2 (FIG. 4b) had significant effects on HIV replication. Trappin-2 has previously been reported to have immunomodulatory effects and thus its influence on immune regulation is of interest. To determine if the HIV inhibitory effects of trappin-2 are the result of induction of anti-viral cytokines such as IFN-γ, cytokine responses of MT4 cells after treatment with trappin-2 were measured.

The subject of the next assay is MT4 cells. Put plainly: Cytokine responses of MT4 cells after treatment with trappin-2. Type of assay: cell-based. As for the experimental part:
as §1

The subject of the next assay is T cell tropic (X4) HIV. Conditions: T cell tropic (X4) viruses; cited from earlier work.
Assay [1] concerns macrophage tropic (R5) HIV. Conditions: macrophage tropic (R5) viruses; cited from earlier work.

Entries after “also recorded” stand apart in the source; their conditions may differ. Where no end group is shown, it is not given here.

Turning to “trappin-2: recombinant human trappin-2 (6.0 kDa form), serine protease inhibiter of the Trappin family, also known as elafin/SKALP (AQEPVKGPVSTKPGSCPIILIRCAMLNPPNRCLKDTDCPGIKKCCEGSCGMACFVPQ; not fully specified (bridges); also: four disulfide bridges, pairing not given here; UniProt P19957 61-117, looked up)”, the “HIV viral replication (RT activity in supernatants)” value in the assay with HIV HxBc2 (MT4 cells pretreated 1 hour with 1 or 5 ug/mL trappin-2 (physiological concentrations), virus 2 hours, washed, cultured without trappin-2, day 6) is “greatly reduced HIV viral replication in a dose dependent manner; also recorded: significantly reduced virus replication”. The “inhibition of HIV replication” value in the assay on HIV HxBc2 (simultaneous addition of trappin-2 and virus to target cells, compared with 1-hour pre-exposure) is “significantly less inhibition”. In addition, the “HIV viral replication (RT activity, p24 western blot)” value with HIV HxBc2 (trappin-2 preincubated 1 hour with cells and added back into the culture media, day 6) is “even more dramatic decrease in viral replication”. The “induction of cytokines (anti-viral cytokines such as IFN-γ)” value in the assay on MT4 cells is “No induction of cytokines was detected”.

B1: SLP-I: protease inhibitor and member of the antileukoprotease superfamily, first isolated from human saliva (protein, UniProt P03973 26-132, looked up)
Antileukoproteinase: SGKSFKAGVCPPKKSAQCLRYKKPECQSDWQCPGKKRCCPDTCGIKCLDPVDTPNPTRRKPGKCPVTYGQCLMLNPPNFCEMDGQCKRDLKCCMGMCGKSCVSPVKA
On to B1, for which the “prevention of infection of T cells” value with T cell tropic (X4) HIV was “does not prevent infection of T cells”. Also, in assay [1], the “inhibition of HIV infection of macrophage cells” value is listed as “inhibit HIV infection of macrophage cells”.
